According to ChEMBL document CHEMBL1201862, “PubChem BioAssay data set” (2004):
Calls of active or inactive are those of the source.

What was measured:
[1] = biological target: T1, Mitochondrial peptide methionine sulfoxide reductase (Bos taurus, UniProt P54149); test: Absorbance-based biochemical high throughput dose response assay for activators of Methionine sulfoxide reductase A (MsrA).; type: functional
T1 sequence (P54149 whole entry): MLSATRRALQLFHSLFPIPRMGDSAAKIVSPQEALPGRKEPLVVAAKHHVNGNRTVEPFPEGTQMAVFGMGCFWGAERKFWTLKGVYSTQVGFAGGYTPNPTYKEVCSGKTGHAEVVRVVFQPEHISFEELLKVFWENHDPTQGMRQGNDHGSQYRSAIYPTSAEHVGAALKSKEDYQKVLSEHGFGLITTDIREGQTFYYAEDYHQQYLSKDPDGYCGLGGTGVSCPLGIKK

Melanocortin receptor 4 = Melanocortin receptor 4 (Homo sapiens, UniProt P32245); type: functional, cell-based;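 note: Cell-based assay with luminescence read-out, confirmatory dose-response testing for agonist activity of biased ligands at MC4R; human U2OS cells with tagged receptor and beta-arrestin; potency of agonists that increase receptor coupling to beta-arrestin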
Melanocortin receptor 4, sequence (P32245 whole entry): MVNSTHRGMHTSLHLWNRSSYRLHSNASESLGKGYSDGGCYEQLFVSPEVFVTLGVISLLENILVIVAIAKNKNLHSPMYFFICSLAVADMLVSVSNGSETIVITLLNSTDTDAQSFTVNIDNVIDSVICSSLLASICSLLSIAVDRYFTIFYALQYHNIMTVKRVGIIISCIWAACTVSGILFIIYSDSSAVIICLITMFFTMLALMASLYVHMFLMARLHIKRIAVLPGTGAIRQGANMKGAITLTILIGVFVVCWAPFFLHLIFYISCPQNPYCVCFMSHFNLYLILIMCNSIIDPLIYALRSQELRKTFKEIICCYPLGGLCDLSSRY

[2] = biological target: T2, DNA repair and recombination protein RAD54-like (Homo sapiens, UniProt Q92698); test: RAD54 Holliday junction migration blockers – biochemical, fluorescence, cherry-picked samples, dose series, confirmation (AID 651657); type: functional
T2 sequence (Q92698 whole entry): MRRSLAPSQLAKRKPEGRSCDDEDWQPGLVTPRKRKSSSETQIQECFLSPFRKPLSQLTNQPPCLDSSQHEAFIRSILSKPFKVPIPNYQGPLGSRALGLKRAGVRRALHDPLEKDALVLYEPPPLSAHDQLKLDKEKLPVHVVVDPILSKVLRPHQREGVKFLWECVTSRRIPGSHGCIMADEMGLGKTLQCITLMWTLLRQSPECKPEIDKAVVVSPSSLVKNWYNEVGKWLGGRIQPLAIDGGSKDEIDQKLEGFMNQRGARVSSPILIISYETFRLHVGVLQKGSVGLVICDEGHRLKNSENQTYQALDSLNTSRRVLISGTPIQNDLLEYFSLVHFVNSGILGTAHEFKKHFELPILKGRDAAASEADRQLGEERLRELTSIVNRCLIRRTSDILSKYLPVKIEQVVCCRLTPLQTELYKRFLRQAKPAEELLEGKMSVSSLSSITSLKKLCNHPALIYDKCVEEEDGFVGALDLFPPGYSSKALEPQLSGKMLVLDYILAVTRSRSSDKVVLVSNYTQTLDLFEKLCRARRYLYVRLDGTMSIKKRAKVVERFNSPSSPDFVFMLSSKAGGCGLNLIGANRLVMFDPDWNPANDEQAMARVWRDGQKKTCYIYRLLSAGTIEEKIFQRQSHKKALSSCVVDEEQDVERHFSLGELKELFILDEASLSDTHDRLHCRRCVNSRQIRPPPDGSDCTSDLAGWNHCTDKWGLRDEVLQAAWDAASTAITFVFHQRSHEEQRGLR

[3] = Luminescence Cell-Based Dose Retest to Confirm Inhibitors of Cancer Stem Cells. [Related pubchem assays (depositor defined):AID2717, AID2721]; type: functional; conditions: Homo sapiens
[4] = biological target: T3, Replicative DNA helicase DnaB (Mycobacterium tuberculosis, UniProt P9WMR3); test: DnaB intein splicing inhibitors, dose response, biochemical, cell-free fluorescence (AID 449749); type: functional
T3 sequence (P9WMR3 whole entry): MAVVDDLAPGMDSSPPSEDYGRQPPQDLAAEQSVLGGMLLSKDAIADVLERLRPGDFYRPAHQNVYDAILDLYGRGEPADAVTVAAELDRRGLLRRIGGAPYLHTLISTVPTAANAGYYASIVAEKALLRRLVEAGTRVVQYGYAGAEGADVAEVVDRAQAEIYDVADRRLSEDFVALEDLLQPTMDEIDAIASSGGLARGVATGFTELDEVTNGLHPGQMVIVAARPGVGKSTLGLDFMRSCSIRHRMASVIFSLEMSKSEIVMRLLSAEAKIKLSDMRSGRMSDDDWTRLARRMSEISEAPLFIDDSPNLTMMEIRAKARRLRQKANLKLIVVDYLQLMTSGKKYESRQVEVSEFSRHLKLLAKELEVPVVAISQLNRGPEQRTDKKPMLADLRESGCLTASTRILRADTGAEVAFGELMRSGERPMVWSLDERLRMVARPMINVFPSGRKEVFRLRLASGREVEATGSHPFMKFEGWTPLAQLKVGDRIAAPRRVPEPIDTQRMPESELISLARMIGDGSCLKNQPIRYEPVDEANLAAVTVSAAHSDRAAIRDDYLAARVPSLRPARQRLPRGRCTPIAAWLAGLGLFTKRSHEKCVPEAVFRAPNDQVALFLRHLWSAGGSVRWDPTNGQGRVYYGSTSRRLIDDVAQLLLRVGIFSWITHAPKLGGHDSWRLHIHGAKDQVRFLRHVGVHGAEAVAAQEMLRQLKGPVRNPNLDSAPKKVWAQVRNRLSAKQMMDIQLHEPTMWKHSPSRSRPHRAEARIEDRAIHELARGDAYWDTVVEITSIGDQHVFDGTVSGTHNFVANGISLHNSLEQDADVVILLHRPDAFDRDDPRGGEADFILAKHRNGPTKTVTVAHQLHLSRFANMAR

Vero [5] = test: cells; type: functional, cell-based; conditions: Chlorocebus sabaeus
Protein RecA = biological target: T4, Protein RecA (Mycobacterium tuberculosis, UniProt P9WHJ3); test: Fluorescence Cell-Free Homogeneous Dose Retest to Identify Inhibitors of RecA-Intein Splicing Activity. [Related pubchem assays (depositor defined):AID2097, AID2223, AID489010, AID492950]; type: functional
T4 sequence (P9WHJ3 whole entry): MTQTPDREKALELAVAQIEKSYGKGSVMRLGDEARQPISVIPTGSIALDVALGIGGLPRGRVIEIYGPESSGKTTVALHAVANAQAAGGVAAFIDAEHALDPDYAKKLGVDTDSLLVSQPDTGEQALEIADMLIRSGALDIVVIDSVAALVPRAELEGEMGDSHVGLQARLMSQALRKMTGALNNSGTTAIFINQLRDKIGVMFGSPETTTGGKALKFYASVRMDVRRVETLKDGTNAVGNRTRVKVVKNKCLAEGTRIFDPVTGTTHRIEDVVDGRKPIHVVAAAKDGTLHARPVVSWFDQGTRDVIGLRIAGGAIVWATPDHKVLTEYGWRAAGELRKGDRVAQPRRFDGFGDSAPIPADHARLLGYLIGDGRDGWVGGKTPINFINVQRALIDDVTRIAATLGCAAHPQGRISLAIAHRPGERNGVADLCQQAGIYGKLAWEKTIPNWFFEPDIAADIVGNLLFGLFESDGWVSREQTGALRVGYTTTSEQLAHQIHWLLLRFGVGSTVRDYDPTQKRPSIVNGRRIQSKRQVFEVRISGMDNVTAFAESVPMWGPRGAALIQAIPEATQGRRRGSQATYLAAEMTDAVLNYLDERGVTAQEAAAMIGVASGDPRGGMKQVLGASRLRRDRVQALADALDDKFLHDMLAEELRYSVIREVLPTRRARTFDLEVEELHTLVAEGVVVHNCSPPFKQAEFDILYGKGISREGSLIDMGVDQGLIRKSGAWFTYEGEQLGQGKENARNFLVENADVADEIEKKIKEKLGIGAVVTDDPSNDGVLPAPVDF

Vero [6] = test: cells; type: functional; conditions: Chlorocebus sabaeus

## Cc1nc2c(nc1C)C(=O)c1ccccc1C2=O
[1]
  EC50: 95.6 µM (inactive)

## Cc1cc(S)nc(S)n1
[1]
  EC50: > 104 µM (inactive)

## COc1ccccc1-c1cc(NC=O)c2ncc(-c3ccc(F)cc3)n2c1
Melanocortin receptor 4
  EC50: > 9.91 µM (active)

## CCOC(=O)c1c(C)n(C)c2ccc(OCC(O)CN3CCC(C)CC3)cc12 (centres undefined)
[2]
  AC50: 56.3 µM (active)

## C=CCSC(=C(C#N)C#N)c1cc2c([nH]1)CCCC2
[3]
  AC50: 6.73 µM (active)
[4]
  AC50: > 380 µM (inactive)
Vero [5]
  IC50: > 25 µM (active)
Protein RecA
  EC50: 6.29 µM (active)
Vero [6]
  CC50: 10.5 µM (active)
